{"source": "patent US20210386367A1", "about": "“DEVICES AND SYSTEMS FOR GASTROINTESTINAL MICROBIOME DETECTION AND MANIPULATION” (Progenity, Inc., priority 2018, published 2021)", "key": {"E. coli ATCC 25922": {"system": "E. coli ATCC 25922", "assay": "Time-kill assay", "format": "cell-based, Escherichia coli", "details": "2×, 4×, 8× MIC; 2, 6, 24 hr"}, "B. vulgatus ATCC 8482": {"system": "B. vulgatus ATCC 8482", "assay": "Time-kill assay", "format": "cell-based, Bacteroides vulgatus", "details": "2×, 4×, 8× MIC; 2, 6, 24, 48 hr"}, "Escherichia coli": {"system": "Escherichia coli", "assay": "Broth microdilution MIC, 50 clinical isolates (incl. ESBL, one NDM-1)", "format": "cell-based", "method": "Minimal inhibitory concentration (MIC) values were determined by broth microdilution or agar dilution in accordance with guidelines from the Clinical and Laboratory Standards Institute (CLSI; (1) “Methods for Dilution Antimicrobial Susceptibility Tests for Bacteria That Grow Aerobically; Approved Standard; 11th ed.” CLSI standard M07-A11, 2018; (2) “Performance Standards for Antimicrobial Susceptibility Testing; Twenty-Eighth Informational Supplement,” CLSI document M100-S28, 2018; and (3) “Methods for Antimicrobial Susceptibility Testing of Anaerobic Bacteria; Approved Standard—Eighth Edition,” CLSI document M11-A8, 2012).\nTested aerobically by broth microdilution: • Escherichia coli, n=50 • Klebsiella spp., n=50 • Pseudomonas aeruginosa, n=50 • Streptococcus spp., n=50 • Staphylococcus aureus, n=50 • Enterococcus faecalis, n=50 • Enterobacter aerogenes, n=50 • Proteus mirabilis, n=50\nBroth microdilution testing of aerobic bacteria was conducted in cation-adjusted Mueller Hinton broth (MHBII). For testing streptococci, lysed horse blood (LHB) was added to MHBII broth at a final concentration of 3%. Where LHB was used, it was added after filtering.\nBroth microdilution susceptibility testing in 96-well microplates was conducted in accordance with CLSI methods (1) and (2). Automated liquid handlers were used to conduct serial dilutions and liquid transfers, including the Multidrop 384 (Labsystems, Helsinki, Finland), Biomek 2000, and the Biomek FX (Beckman Coulter, Fullerton, Calif.). All wells in columns 2 through 12 of a standard 96-well microdilution plate (Costar 3795) were filled with 150 μL of the appropriate diluent. Then, 300 μL of the test agents were added to the wells of column 1 of the plates at 100× the highest final concentration to be tested. Serial two-fold dilutions were made across the rows through column 11 using the Biomek 2000. The wells of column 12 contained no drug and served as the growth control wells. This plate served as the “mother plate” from which MIC assay plates or “daughter plates” were made.\nThe daughter plates were loaded with 190 μL per well of the appropriate medium using the Multidrop 384. The daughter plates were created using the Biomek FX which transferred 2 μL of drug solution from each well of a mother plate to each corresponding well of the daughter plate in a single step. A standardized inoculum of each test organism was prepared per CLSI methods (1) to equal a 0.5 McFarland standard, followed by a dilution of 1:20 for aerobes and 1:10 for anaerobes. The plates were then inoculated with 10 μL of the diluted inoculum using the Biomek 2000 from low to high drug concentration, resulting in a final concentration of approximately 5×10^5 CFU/mL per well. An un-inoculated plate was incubated in parallel for each medium for the purpose of assessing solubility of the drug in the test media.\nInoculated plates were stacked 3 or 4 high, covered with a sterile lid on the top plate, placed into boxes with CO2 planchets (streptococci) or plastic bags (all other isolates). Plates were incubated at 35° C. for 16-24 hr in ambient air for aerobes or for 42-48 hr in the anaerobic environment of the Bactron II anaerobe chamber (Sheldon Manufacturing Co.; Cornelius, Oreg.). Following incubation, the microplates were removed from the incubator and viewed from the bottom using a plate viewer. The MIC values were read and recorded as the lowest concentration of drug that inhibited visible growth of the organism as per CLSI methods (1) and (2)."}, "[1]": {"system": "E. coli, Streptococcus spp., and Bacteroides spp. isolates", "format": "cell-based", "details": "across the evaluated isolates", "method": "Initial values of the MIC were determined by agar dilution in accordance with guidelines from the Clinical and Laboratory Standards Institute (CLSI; (1) “Methods for Dilution Antimicrobial Susceptibility Tests for Bacteria That Grow Aerobically; Approved Standard; 11th ed.,” CLSI standard M07, 2018; (2) “Methods for Antimicrobial Susceptibility Testing of Anaerobic Bacteria; Approved Standard—Eighth Edition,” CLSI document M11-A8, 2012.).\nIf there were no colonies on the antibiotic selection plates, the spontaneous mutation frequency was reported as less than the frequency observed with one colony to indicate that the spontaneous mutation frequency was less than the limit of detection (one CFU). […] The mutation prevention concentration (MPC) was reported as the lowest concentration for which no mutants were selected."}, "E. coli MMX 1312": {"system": "E. coli MMX 1312", "assay": "Broth microdilution MIC (time-kill study)", "format": "cell-based, Escherichia coli"}}}
{"smiles": "CO[C@H]1/C=C/O[C@@]2(C)Oc3c(C)c(O)c4c(O)c(c5c(nc6cc(C)ccn65)c4c3C2=O)NC(=O)/C(C)=C\\C=C\\[C@H](C)[C@H](O)[C@@H](C)[C@@H](O)[C@@H](C)[C@H](OC(C)=O)[C@@H]1C", "note": "[rifaximin]", "values": [{"measurement": "time-kill kinetics outcome (bactericidal = ≥3 log reduction in CFU per mL)", "setting": "E. coli ATCC 25922", "result": "bacteriostatic effect at 2-6 hr with regrowth between 6 and 24 hr"}, {"measurement": "time-kill kinetics outcome (bactericidal = ≥3 log reduction in CFU per mL)", "setting": "B. vulgatus ATCC 8482", "result": "bactericidal against this organism at 8×MIC at 6 hr; and at 2 and 4×MIC at 6, 24 and 48 hr"}, {"measurement": "MIC50", "setting": "Escherichia coli", "result": 8, "unit": "µg/mL"}, {"measurement": "MIC90", "setting": "Escherichia coli", "result": 16, "unit": "µg/mL"}, {"measurement": "MIC range", "setting": "Escherichia coli", "result": "1 to 32", "unit": "µg/mL"}, {"measurement": "Mode", "setting": "Escherichia coli", "result": 8, "unit": "µg/mL"}, {"measurement": "Cumulative percentage of isolates inhibited at MIC", "setting": "Escherichia coli; 1 μg/mL", "result": 2.0, "unit": "%"}, {"measurement": "Number of test isolates at MIC", "setting": "Escherichia coli; 1 μg/mL", "result": 1}, {"measurement": "Cumulative percentage of isolates inhibited at MIC", "setting": "Escherichia coli; 2 μg/mL", "result": 6.0, "unit": "%"}, {"measurement": "Number of test isolates at MIC", "setting": "Escherichia coli; 2 μg/mL", "result": 2}, {"measurement": "Cumulative percentage of isolates inhibited at MIC", "setting": "Escherichia coli; 4 μg/mL", "result": 34.0, "unit": "%"}, {"measurement": "Number of test isolates at MIC", "setting": "Escherichia coli; 4 μg/mL", "result": 14}, {"measurement": "Cumulative percentage of isolates inhibited at MIC", "setting": "Escherichia coli; 8 μg/mL", "result": 80.0, "unit": "%"}, {"measurement": "Number of test isolates at MIC", "setting": "Escherichia coli; 8 μg/mL", "result": 23}, {"measurement": "Cumulative percentage of isolates inhibited at MIC", "setting": "Escherichia coli; 16 μg/mL", "result": 98.0, "unit": "%"}, {"measurement": "Number of test isolates at MIC", "setting": "Escherichia coli; 16 μg/mL", "result": 9}, {"measurement": "Cumulative percentage of isolates inhibited at MIC", "setting": "Escherichia coli; 32 μg/mL", "result": 100.0, "unit": "%"}, {"measurement": "Number of test isolates at MIC", "setting": "Escherichia coli; 32 μg/mL", "result": 1}, {"measurement": "MPC values", "setting": "[1]", "result": "In no instance was an MPC able to be reported"}, {"measurement": "MIC", "setting": "E. coli MMX 1312; E. coli MMX 1312", "result": 8, "unit": "µg/mL"}, {"measurement": "MIC", "setting": "E. coli MMX 1312; broth microdilution", "result": 8, "unit": "µg/mL"}]}
